Measurements taken from US9302999B2, “Substituted triazoles as herbicides” (E. I. DU PONT DE NEMOURS AND COMPANY, priority 2012, dated 2016).
Read-outs that look alike come from different tables or passages of the source.

Experiments:
Format in all cases: in vivo
[1] = system: chickweed (common chickweed, Stellaria media); assay: Test C postemergence: chickweed
Description: (§1) At the same time, plants selected from these crop and weed species and also barley (winter barley, Hordeum vulgare), canarygrass (Phalaris minor), chickweed (common chickweed, Stellaria media) windgrass (Apera spica-venti) and deadnettle (henbit deadnettle, Lamium amplexicaule) were planted in pots containing Redi-Earth® planting medium (Scotts Company, 14111 Scottslawn Road, Marysville, Ohio 43041) comprising spaghnum peat moss, vermiculite, wetting agent and starter nutrients and treated with postemergence applications of test chemicals formulated in the same manner. Plants ranged in height from 2 to 18 cm (1- to 4-leaf stage) for postemergence treatments.
(§2) Treated plants and controls were maintained in a greenhouse for 13 to 15 days, after which time all species were compared to controls and visually evaluated. Plant response ratings, summarized in Table C, are based on a scale of 0 to 100 where 0 is no effect and 100 is complete control. A dash (-) response means no test result.

[2] = system: morningglory (Ipomoea coccinea); assay: Test C pre-/postemergence: morningglory
Method in brief: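 Visual injury scored 0–100 (100 = complete control) against untreated controls after 13–15 greenhouse days. Surfactant-containing solvent formulations applied either to soil after sowing (loam/sand) or over 1- to 4-leaf plants, 2–18 cm tall.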

[3] = system: oat, wild (wild oat, Avena fatua); assay: Test D pre-/postemergence: oat, wild
Description: (§3) Seeds of plant species selected from bluegrass (annual bluegrass, Poa annua), blackgrass (Alopecurus myosuroides), canarygrass (Phalaris minor), chickweed (common chickweed, Stellaria media), galium (catchweed bedstraw, Galium aparine), bromegrass, downy (downy bromegrass, Bromus tectorum), field poppy (Papaver rhoeas), field violet (Viola arvensis), foxtail, green (green foxtail, Setaria viridis), deadnettle (henbit deadnettle, Lamium amplexicaule), ryegrass, Italian (Italian ryegrass, Lolium multiflorum), kochia (Kochia scoparia), lambsquarters (Chenopodium album), oilseed rape (Brassica napus), pigweed (Amaranthus retroflexus), Russian thistle (Salsola iberica), chamomile (scentless chamomile, Matricaria inodora), speedwell (bird's-eye speedwell, Veronica persica), barley, spring (spring barley, Hordeum vulgare), wheat, spring (spring wheat, Triticum aestivum), buckwheat, wild (wild buckwheat, Polygonum convolvulus), mustard, wild (wild mustard, Sinapis arvensis), oat, wild (wild oat, Avena fatua), radish, wild (wild radish, Raphanus raphanistrum), windgrass (Apera spica-venti), barley, winter (winter barley, Hordeum vulgare), and wheat, winter (winter wheat, Triticum aestivum) were planted into a silt loam soil and treated preemergence with test chemicals formulated in a non-phytotoxic solvent mixture which included a surfactant. At the same time, these same crop and weed species were planted in pots containing the planting medium comprising spaghnum peat moss, vermiculite, wetting agent and starter nutrients and treated with postemergence applications of the test chemicals formulated in the same manner. Plants ranged in height from 2 to 18 cm (1- to 4-leaf stage).
as §2, with “controlled growth environment” for “greenhouse”, “14” for “13”, “21 days” for “15 days,”, “D,” for “C,”

[4] = system: foxtail, giant (giant foxtail, Setaria faberii); assay: Test A pre-/postemergence: foxtail, giant; conditions: for pest or weed control at 125 g/ha / pest or weed control at 500 g/ha: Setaria faberi, 240 h
Method in brief: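 Compounds, formulated with surfactant in non-phytotoxic solvent, were applied as a directed soil spray preemergence and as postemergence sprays to 2–10 cm, one- to two-leaf seedlings grown in loam soil blended with sand; visual injury, 0–100, assessed ~10 days post-treatment against untreated controls.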

[5] = system: foxtail, green (green foxtail, Setaria viridis); assay: Test D pre-/postemergence: foxtail, green
Description: as §3
as §2, with “controlled growth environment” for “greenhouse”, “14” for “13”, “21 days” for “15 days,”, “D,” for “C,”

[6] = system: oilseed rape (Brassica napus); assay: Test D pre-/postemergence: oilseed rape
Description: as §3
as §2, with “controlled growth environment” for “greenhouse”, “14” for “13”, “21 days” for “15 days,”, “D,” for “C,”

[7] = system: nightshade (eastern black nightshade, Solanum ptycanthum); assay: Test C pre-/postemergence: nightshade; conditions: Preemergence
Description: (§4) Seeds of plant species selected from blackgrass (Alopecurus myosuroides), bromegrass, downy (downy bromegrass, Bromus tectorum), foxtail, green (green foxtail, Setaria viridis), ryegrass, Italian (Italian ryegrass, Lolium multiflorum), winter wheat (Triticum aestivum), wild oat (Avena fatua), galium (catchweed bedstraw, Galium aparine), bermudagrass (Cynodon dactylon), surinam grass (Brachiaria decumbens), cocklebur (common cocklebur, Xanthium strumarium), corn (Zea mays), large crabgrass (Digitaria sanguinalis), woolly cupgrass (Eriochloa villosa), foxtail, giant (giant foxtail, Setaria faberii), goosegrass (Eleusine indica), johnsongrass (Sorghum halepense), kochia (Kochia scoparia), lambsquarters (Chenopodium album), morningglory (Ipomoea coccinea), nightshade (eastern black nightshade, Solanum ptycanthum), nutsedge, yellow (yellow nutsedge, Cyperus esculentus), pigweed (Amaranthus retroflexus), ragweed (common ragweed, Ambrosia elation), soybean (Glycine max), common (oilseed) sunflower (Helianthus annuus), Russian thistle (Salsola kali) and velvetleaf (Abutilon theophrasti) were planted into a blend of loam soil and sand and treated preemergence with test chemicals formulated in a non-phytotoxic solvent mixture which included a surfactant.
as §1, §2

[8] = system: common (oilseed) sunflower (Helianthus annuus); assay: Test C pre-/postemergence: sunflower; conditions: Preemergence
Description: as §4, §1, §2

[9] = 31 g ai/ha, scale 0 to 100 (0 no effect, 100 complete control)
[10] = 62 g ai/ha, scale 0 to 100 (0 no effect, 100 complete control)
[11] = 125 g ai/ha, scale 0 to 100, 0 no effect, 100 complete control
[12] = Postemergence, 31 g ai/ha, scale 0 to 100 (0 no effect, 100 complete control)
[13] = Postemergence, 62 g ai/ha, scale 0 to 100 (0 no effect, 100 complete control)
[14] = Postemergence, 125 g ai/ha, scale 0 to 100, 0 no effect, 100 complete control
[15] = Postemergence, 250 g ai/ha, scale 0 to 100
[16] = Postemergence, 250 g ai/ha, scale 0 to 100 (0 no effect, 100 complete control)
[17] = Postemergence, 16 g ai/ha, scale 0 to 100
[18] = Preemergence, 16 g ai/ha, scale 0 to 100 (0 no effect, 100 complete control)
[19] = Preemergence, 31 g ai/ha, scale 0 to 100 (0 no effect, 100 complete control)
[20] = Preemergence, 62 g ai/ha, scale 0 to 100
[21] = Preemergence, 125 g ai/ha, scale 0 to 100
[22] = Preemergence, 250 g ai/ha, scale 0 to 100
[23] = Postemergence, 125 g ai/ha, 0 to 100 scale, 0 is no effect, 100 is complete control
[24] = Postemergence, 500 g ai/ha, visual rating on 0 to 100 scale (0 no effect, 100 complete control), approximately ten days
[25] = Preemergence, 125 g ai/ha, 0 to 100 scale where 0 is no effect and 100 is complete control
[26] = Preemergence, 500 g ai/ha, 0 to 100 scale (0 no effect, 100 complete control)
[27] = 31 g ai/ha, scale of 0 to 100, 0 is no effect, 100 is complete control
[28] = 62 g ai/ha, scale of 0 to 100, 0 is no effect, 100 is complete control
[29] = 250 g ai/ha, scale 0 to 100, 0 no effect, 100 complete control

Cc1nn(-c2ccc(F)cc2)nc1Cc1ccnc(C(F)(F)F)c1 [Compound 16, 4-[[2-(4-fluorophenyl)-5-methyl-2H-1,2,3-triazol-4-yl]methyl]-2-(trifluoromethyl)pyridine]
Plant response rating, Chickweed [1, 9]: 85 | Plant response rating, Chickweed [1, 10]: 98 | Plant response rating, Chickweed [1, 11]: 100 | Plant response rating, Chickweed ([1]; 250 g ai/ha, scale 0 to 100): 100 | Plant response rating, Morningglory [2, 12]: 50 | Plant response rating, Morningglory [2, 13]: 75 | Plant response rating, Morningglory [2, 14]: 75 | Plant response rating, Morningglory [2, 15]: 80 | Plant response rating: Oat, Wild [3, 12]: 10 | Plant response rating: Oat, Wild [3, 13]: 30 | Plant response rating: Oat, Wild [3, 14]: 45 | Plant response rating: Oat, Wild [3, 16]: 50 | Plant response rating, Oat, Wild [3, 17]: 0 | Plant response rating, Oat, Wild [3, 18]: 0 | Plant response rating, Oat, Wild [3, 19]: 10 | Plant response rating, Oat, Wild [3, 20]: 10 | Plant response rating, Oat, Wild [3, 21]: 100 | Plant response rating, Oat, Wild [3, 22]: 100 | pest or weed control at 125 g/ha ([4]; post-emergence, Postemergence, 125 g ai/ha, 0 to 100 scale, 0 is no effect, 100 is complete control, read-out: Foxtail, Giant plant response rating): 90% | pest or weed control at 500 g/ha ([4]; post-emergence, Postemergence, 500 g ai/ha, visual rating on 0 to 100 scale (0 no effect, 100 complete control), approximately ten days, read-out: Foxtail, Giant plant response rating): 90% | pest or weed control at 125 g/ha ([4]; pre-emergence, Preemergence, 125 g ai/ha, 0 to 100 scale (0 no effect, 100 complete control), read-out: Plant response rating, Foxtail, Giant): 100% | pest or weed control at 500 g/ha ([4]; pre-emergence, Preemergence, 500 g ai/ha, 0 to 100 scale, 0 is no effect, 100 is complete control, read-out: Plant response rating, Foxtail, Giant): 100% | Plant response rating: Foxtail, Green [5, 12]: 30 | Plant response rating: Foxtail, Green [5, 13]: 80 | Plant response rating: Foxtail, Green [5, 14]: 90 | Plant response rating: Foxtail, Green [5, 16]: 95 | Plant response rating, Foxtail, Green [5, 17]: 30 | Plant response rating, Foxtail, Green [5, 18]: 25 | Plant response rating, Foxtail, Green [5, 19]: 100 | Plant response rating, Foxtail, Green [5, 20]: 100 | Plant response rating, Foxtail, Green [5, 21]: 100 | Plant response rating, Foxtail, Green [5, 22]: 100 | Plant response rating: Oilseed Rape [6, 12]: 70 | Plant response rating: Oilseed Rape [6, 13]: 95 | Plant response rating: Oilseed Rape [6, 14]: 100 | Plant response rating: Oilseed Rape [6, 16]: 100 | Plant response rating, Oilseed Rape [6, 17]: 40 | Plant response rating, Oilseed Rape [6, 18]: 0 | Plant response rating, Oilseed Rape [6, 19]: 0 | Plant response rating, Oilseed Rape [6, 20]: 50 | Plant response rating, Oilseed Rape [6, 21]: 50 | Plant response rating, Oilseed Rape [6, 22]: 100

Cc1nn(-c2ccnc(C(F)(F)F)c2)nc1Cc1ccnc(C(F)(F)F)c1 [Compound 137]
Plant response rating, Chickweed [1, 9]: 70 | Plant response rating, Chickweed [1, 10]: 80 | Plant response rating, Chickweed [1, 11]: 98 | Plant response rating, Chickweed ([1]; 250 g ai/ha, scale 0 to 100): 98 | Plant response rating, Morningglory [2, 13]: 60 | Plant response rating, Morningglory [2, 14]: 80 | Plant response rating, Morningglory [2, 15]: 90 | Plant response rating: Oat, Wild [3, 12]: 10 | Plant response rating: Oat, Wild [3, 13]: 20 | Plant response rating: Oat, Wild [3, 14]: 35 | Plant response rating: Oat, Wild [3, 16]: 50 | Plant response rating, Oat, Wild [3, 17]: 0 | Foxtail, Giant plant response rating [4, 23]: 90 | Foxtail, Giant plant response rating [4, 24]: 90 | Plant response rating, Foxtail, Giant [4, 25]: 90 | Plant response rating, Foxtail, Giant [4, 26]: 90 | Plant response rating: Foxtail, Green [5, 12]: 50 | Plant response rating: Foxtail, Green [5, 13]: 70 | Plant response rating: Foxtail, Green [5, 14]: 80 | Plant response rating: Foxtail, Green [5, 16]: 95 | Plant response rating, Foxtail, Green [5, 17]: 40 | Plant response rating: Oilseed Rape [6, 12]: 90 | Plant response rating: Oilseed Rape [6, 13]: 98 | Plant response rating: Oilseed Rape [6, 14]: 100 | Plant response rating: Oilseed Rape [6, 16]: 100 | Plant response rating, Oilseed Rape [6, 17]: 70

Cc1nn(-c2ccc(F)c(C(F)(F)F)c2)nc1Oc1ccnc(C(F)(F)F)c1 [Compound 147]
Plant response rating, Nightshade [7, 27]: 98 | Plant response rating, Nightshade [7, 28]: 98 | Plant response rating, Nightshade [7, 11]: 98 | Plant response rating, Nightshade [7, 29]: 98 | Plant response rating, Morningglory ([2]; Preemergence, 31 g ai/ha, scale of 0 to 100, 0 is no effect, 100 is complete control): 30 | Plant response rating, Morningglory ([2]; Preemergence, 62 g ai/ha, scale of 0 to 100, 0 is no effect, 100 is complete control): 30 | Plant response rating, Morningglory ([2]; Preemergence, 250 g ai/ha, scale 0 to 100, 0 no effect, 100 complete control): 35 | Plant response rating: Oat, Wild [3, 12]: 15 | Plant response rating: Oat, Wild [3, 13]: 30 | Plant response rating: Oat, Wild [3, 14]: 35 | Plant response rating, Oat, Wild [3, 17]: 10 | Plant response rating, Oat, Wild [3, 18]: 5 | Plant response rating, Oat, Wild [3, 19]: 15 | Plant response rating, Oat, Wild [3, 20]: 35 | Plant response rating, Oat, Wild [3, 21]: 70 | Foxtail, Giant plant response rating [4, 23]: 70 | Foxtail, Giant plant response rating [4, 24]: 80 | Plant response rating, Foxtail, Giant [4, 25]: 100 | Plant response rating, Foxtail, Giant [4, 26]: 100 | Plant response rating: Foxtail, Green [5, 12]: 15 | Plant response rating: Foxtail, Green [5, 13]: 25 | Plant response rating: Foxtail, Green [5, 14]: 60 | Plant response rating, Foxtail, Green [5, 17]: 15 | Plant response rating, Foxtail, Green [5, 18]: 10 | Plant response rating, Foxtail, Green [5, 19]: 25 | Plant response rating, Foxtail, Green [5, 20]: 75 | Plant response rating, Foxtail, Green [5, 21]: 100 | Plant response rating: Oilseed Rape [6, 12]: 60 | Plant response rating: Oilseed Rape [6, 13]: 95 | Plant response rating: Oilseed Rape [6, 14]: 100 | Plant response rating, Oilseed Rape [6, 17]: 25 | Plant response rating, Oilseed Rape [6, 18]: 0 | Plant response rating, Oilseed Rape [6, 19]: 0 | Plant response rating, Oilseed Rape [6, 20]: 5 | Plant response rating, Oilseed Rape [6, 21]: 15 | Plant response rating, Sunflower [8, 27]: 15 | Plant response rating, Sunflower [8, 28]: 15 | Plant response rating, Sunflower [8, 11]: 15 | Plant response rating, Sunflower [8, 29]: 25
